Results as given in article PMC6230386, “Gossypol from Cottonseeds Ameliorates Glucose Uptake by Mimicking Insulin Signaling and Improves Glucose Homeostasis in Mice with Streptozotocin-Induced Diabetes” (Oxidative Medicine and Cellular Longevity, 2018).

Molecular target: α-glucosidase
Test: pNPG hydrolysis at […] nm; Lineweaver-Burk kinetics
Format: biochemical, Saccharomyces cerevisiae

Cc1cc2c(C(C)C)c(O)c(O)c(C=O)c2c(O)c1-c1c(C)cc2c(C(C)C)c(O)c(O)c(C=O)c2c1O [GSP, gossypol]
IC50: 670 ± 440 nM
